Earlier results on two compounds are cited in PMC12375981 (Protein Science : A Publication of the Protein Society, 2025).

Marks after values point to notes of the source that are not given here.

One series concerns the target WT 3CL^pro (Severe acute respiratory syndrome coronavirus 2, UniProt P0DTD1). The conditions noted are these: cited from earlier work.
For a further series, the system named is SARS‐CoV‐2 3CL^pro. The conditions noted are these: cited from earlier work.

Regarding `COc1cccc2[nH]c(C(=O)N[C@@H](CC(C)C)C(=O)N[C@@H](C[C@@H]3CCNC3=O)C(=O)COP(=O)(O)O)cc12` [lufotrelvir], the “K D ^app” value on WT 3CL^pro is given as 17 ± 2 ^b nM. On to `CC(C)(C)[C@H](NC(=O)C(F)(F)F)C(=O)N1C[C@H]2[C@@H]([C@H]1C(=O)N[C@H](C#N)C[C@@H]1CCNC1=O)C2(C)C` [nirmatrelvir], for which the “increase of the strength of dimerization” value in the series on SARS‐CoV‐2 3CL^pro is reported as “about seven”.
